Laboratory results as given in patent US20240287065A1, “COMPOUND AS CDK KINASE INHIBITOR AND USE THEREOF” (TYK MEDICINES (ZHENGZHOU) , INC., priority 2021, published 2024).

How the values were obtained:
[1] = tested on: HCC1806 cells; assay: Cell proliferation inhibition assay (MTT, 7 days); format: cell-based; settings: Homo sapiens, HCC1806, 168 h, HCC1086 [sic], 7 days incubation
Experimental: (§1) MCF7, T47D, OVCAR3 and HCC1806 cells were inoculated in 96-well plates at 3000, 3000, 2500, and 2000 cells/well, respectively, and cultured overnight at 37° C., 5% C02 incubator.
(§2) 1. […] Then 2.5 μl of the stock solution was dissolved in 497.5 μl of DMSO-free medium, and then a 3-fold serial gradient dilution was performed with 0.1% DMSO medium for a total of 9 concentrations, and the concentrations of the compounds after dilution were as follows: • 10000 nM, 3333.33 nM, 1111.11 nM, 370.34 nM, 123.45 nM, 41.15 nM, 13.72 nM, 4.57 nM, and 1.52 nM. • b) After fully mixing, 20 μL of compound solutions were added into cell culture plates containing 80 μL of cells respectively, with 4 replicate wells for each concentration. • c) The cells were transferred to an incubator and incubated for 7 days, and exchanged with fresh culture medium containing the same concentration of compounds when incubated to day 4. 2. MTT assay • a) The cell culture plate was taken out and 10 μL of 5 mg/ml MTT was added to the hood. • b) The cell culture plate was put back into the incubator and continued to incubate for 3 hours. • c) The cell culture plate was taken out to remove the culture medium, and 100 μL of isopropanol (0.4 mMHCl, 0.4% NP40) was added to the plate, and the plate was shaken on a shaker at room temperature for 30 minutes and read at 570 nm. 3. Data analysis
(§3) The survival rate (% Cell Survival) was calculated using the following equation:
(§4) % Cell Survival=100%×(OD_Sample−OD_LCave)/(OD_HC−OD_LCave) • OD_HC: 0.1‰ cell readings of DMSO control • OD_Sample: cell readings of compound addition • OD_LC: readings of blank medium • Analyed by Prizm: Dose-response-Inhibition Log(inhibitor) vs response (three parameters for the best fit)
(§5) IC50 (nM) values were calculated by concentration-response curve fitting.

[2] = tested on: OVCAR3 cells; assay: Cell proliferation inhibition assay (MTT, 7 days); format: cell-based; settings: Homo sapiens, OVCAR-3, 168 h, 7 days incubation
Experimental: as §1, §2, §3, §4, §5

[3] = tested on: T47D cells; assay: Cell proliferation inhibition assay (MTT, 7 days); format: cell-based; settings: Homo sapiens, 168 h, 7 days incubation
Experimental: as §1, §2, §3, §4, §5

[4] = tested on: MCF7 cells; assay: Cell proliferation inhibition assay (MTT, 7 days); format: cell-based; settings: Homo sapiens, 168 h, 7 days incubation
Experimental: as §1, §2, §3, §4, §5

[5] = biological target: CDK2/CycE1 (Homo sapiens, UniProt P24941); assay: Enzyme activity test; format: biochemical;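 note: values come from the source column headed CDK2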
Experimental: (§6) • 1. The test compounds and pabocinib were configured into a […] solution of DMSO; • 2. 20 nL of stock solution was transferred to a 384-well plate using Echo550. DMSO was used as a blank control.
(§7) • 1. according to the following table to prepare 1.3X enzyme solution containing enzyme, substrate and cofactor; • 2. 15 μL of 1.3X enzyme solution was added to each well and the mixture was incubated for 30 min at room temperature; • 3. 5 μL of ATP solution was added to initiate the reaction. The final volume of each well was 20 μL; • 4. After incubation for 150 min at room temperature, 75 μL of termination buffer solution was added to terminate the experiment; • 5. The samples were analyzed using EZ reader.
(§8) The % inhibition was calculated using the following equation
(§9) The one treated with DMSO is the positive control (PC)
(§10) The one without enzyme is the negative control (NC)
(§11) % Inhibition=100-100*((CRPC−CRsample)/(CRPC−CRNC))

[6] = biological target: CDK4/CycD3 (Homo sapiens, UniProt P11802); assay: Enzyme activity test; format: biochemical;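 note: values come from the source column headed CDK4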
Experimental: as §6, §7, §8, §9, §10, §11

[7] = biological target: CDK6/CycD1 (Homo sapiens, UniProt Q00534); assay: Enzyme activity test; format: biochemical;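 note: values come from the source column headed CDK6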
Experimental: as §6, §7, §8, §9, §10, §11

Chain of CDK4/CycD3 (P11802 whole entry, species assumed): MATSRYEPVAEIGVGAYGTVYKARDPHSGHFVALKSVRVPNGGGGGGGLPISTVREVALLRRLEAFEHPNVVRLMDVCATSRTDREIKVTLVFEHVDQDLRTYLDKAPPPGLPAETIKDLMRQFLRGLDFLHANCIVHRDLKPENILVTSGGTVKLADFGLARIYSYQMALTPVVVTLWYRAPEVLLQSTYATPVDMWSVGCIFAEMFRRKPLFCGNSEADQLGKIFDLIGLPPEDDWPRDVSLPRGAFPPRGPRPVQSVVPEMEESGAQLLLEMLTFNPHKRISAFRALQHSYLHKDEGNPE
Chain of CDK4/CycD3 (P30281 whole entry partner, species assumed): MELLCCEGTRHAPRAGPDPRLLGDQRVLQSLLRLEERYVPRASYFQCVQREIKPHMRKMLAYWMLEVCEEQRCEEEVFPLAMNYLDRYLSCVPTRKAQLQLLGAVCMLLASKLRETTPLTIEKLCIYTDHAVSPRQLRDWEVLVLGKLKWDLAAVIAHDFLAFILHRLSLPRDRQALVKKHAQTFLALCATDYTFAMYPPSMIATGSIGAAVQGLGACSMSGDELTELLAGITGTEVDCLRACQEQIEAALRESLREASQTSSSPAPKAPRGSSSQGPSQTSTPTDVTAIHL
Chain of CDK6/CycD1 (Q00534 whole entry, species assumed): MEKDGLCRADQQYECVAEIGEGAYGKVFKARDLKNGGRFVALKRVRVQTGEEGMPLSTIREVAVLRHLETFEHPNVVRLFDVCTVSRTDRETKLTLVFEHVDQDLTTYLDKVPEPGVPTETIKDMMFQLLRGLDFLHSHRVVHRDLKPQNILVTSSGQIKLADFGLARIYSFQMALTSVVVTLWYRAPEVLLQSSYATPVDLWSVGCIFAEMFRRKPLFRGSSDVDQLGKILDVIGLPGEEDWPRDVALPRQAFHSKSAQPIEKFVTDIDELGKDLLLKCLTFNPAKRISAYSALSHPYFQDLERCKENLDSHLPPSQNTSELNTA
Chain of CDK6/CycD1 (P24385 whole entry partner, species assumed): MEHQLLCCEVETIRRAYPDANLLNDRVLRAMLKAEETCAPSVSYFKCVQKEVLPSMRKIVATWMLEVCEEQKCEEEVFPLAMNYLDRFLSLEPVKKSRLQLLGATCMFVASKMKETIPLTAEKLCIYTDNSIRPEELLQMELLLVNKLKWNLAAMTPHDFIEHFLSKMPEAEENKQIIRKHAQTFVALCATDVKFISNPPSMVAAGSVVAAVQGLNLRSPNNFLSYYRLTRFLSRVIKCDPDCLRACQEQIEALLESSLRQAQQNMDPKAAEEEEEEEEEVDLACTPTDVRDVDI

Row | SMILES | IC50 [1] [nM] | IC50 [2] [nM] | IC50 [3] [nM] | IC50 [4] [nM] | IC50 [5] [nM] | IC50 [6] [nM] | IC50 [7] [nM]
1 | CCOc1ccc(S(=O)(=O)N2CCC(Nc3ncc4cc(OC(F)F)c(=O)n([C@@H]5CCC[C@@]5(C)O)c4n3)CC2)cc1 [Example 34] | ≤ 50 | ≤ 50 | ≤ 50 | ≤ 50 | – | – | –
2 | [2H]C([2H])([2H])Oc1ccc(S(=O)(=O)N2CCC(Nc3ncc4cc(OC(F)F)c(=O)n([C@@H]5CCC[C@@]5(C)O)c4n3)CC2)cc1 [Example 31] | ≤ 50 | ≤ 50 | ≤ 50 | ≤ 50 | < 10 | < 10 | –
3 | C[C@@]1(O)CCC[C@H]1n1c(=O)c(OC(F)F)cc2cnc(NC3CCN(S(=O)(=O)C4CC(F)(F)C4)CC3)nc21 [Example 46] | 50 to 5200 | ≤ 50 | ≤ 50 | ≤ 50 | < 10 | < 10 | –
4 | C[C@@]1(O)CCC[C@H]1n1c(=O)c(OC(F)F)cc2cnc(NC3CCN(S(=O)(=O)c4cccc(C(F)(F)F)c4)CC3)nc21 [Example 20] | 200 to 51000 | 50 to 5200 | 50 to 5200 | 200 to 51000 | – | – | –
5 | C[C@@]1(O)CCC[C@H]1n1c(=O)c(OC(F)F)cc2cnc(NC3CCN(S(=O)(=O)N4CCOCC4)CC3)nc21 [Example 66] | 50 to 5200 | ≤ 50 | 50 to 5200 | – | < 10 | 10 to 100 | < 10
6 | CN1CCN(c2ccc(Nc3ncc4cc(OC(F)F)c(=O)n([C@@H]5CCC[C@@]5(C)O)c4n3)nc2)CC1 [Example 60] | ≤ 50 | ≤ 50 | ≤ 50 | ≤ 50 | – | – | –
7 | CCn1cc(S(=O)(=O)N2CCC(Nc3ncc4cc(OC(F)F)c(=O)n([C@@H]5CCC[C@@]5(C)O)c4n3)CC2)cn1 [Example 39] | ≤ 50 | – | – | ≤ 50 | – | – | –
8 | C[C@@]1(O)CCC[C@H]1n1c(=O)c(OC(F)F)cc2cnc(NC3CCN(S(=O)(=O)c4ccc(Cl)cc4)CC3)nc21 [Example 58] | 200 to 51000 | 50 to 5200 | 50 to 5200 | 50 to 5200 | – | – | –
9 | C[C@@]1(O)CCC[C@H]1n1c(=O)c(OC(F)F)cc2cnc(NC3CCN(S(=O)(=O)c4cc(F)c(F)cc4F)CC3)nc21 [Example 21] | 200 to 51000 | 50 to 5200 | 50 to 5200 | 200 to 51000 | – | – | –
10 | C[C@@]1(O)CCC[C@H]1n1c(=O)c(OC(F)F)cc2cnc(NC3CCN(S(=O)(=O)C4CCC(=O)CC4)CC3)nc21 [Example 53] | 200 to 51000 | ≤ 50 | 50 to 5200 | 200 to 51000 | – | – | –
11 | C[C@@]1(O)CCC[C@H]1n1c(=O)c(OC(F)F)cc2cnc(NC3CCN(S(=O)(=O)C4CCCCC4)CC3)nc21 [Example 49] | 200 to 51000 | 50 to 5200 | 50 to 5200 | – | – | – | –
12 | C[C@@]1(O)CCC[C@H]1n1c(=O)c(OC(F)F)cc2cnc(NC3CCN(S(=O)(=O)CC#N)CC3)nc21 [Example 38] | 50 to 5200 | – | – | ≤ 50 | – | – | –
13 | C[C@@]1(O)CCC[C@H]1n1c(=O)c(OC(F)F)cc2cnc(NC3CCN(S(=O)(=O)C4CCC(O)CC4)CC3)nc21 (stereo partly shown) [Example 56] | 200 to 51000 | 200 to 51000 | 50 to 5200 | 50 to 5200 | – | – | –
14 | C[C@@]1(O)CCC[C@H]1n1c(=O)c(OC(F)F)cc2cnc(N[C@@H]3CCOC[C@H]3O)nc21 [Example 45] | – | – | – | – | 10 to 100 | 10 to 100 | –
15 | C[C@@]1(O)CCC[C@H]1n1c(=O)c(OC(F)F)cc2cnc(NC3CCN(S(=O)(=O)C4CCCC4)CC3)nc21 [Example 48] | 50 to 5200 | ≤ 50 | 50 to 5200 | 50 to 5200 | < 10 | < 10 | –
16 | C[C@@]1(O)CCC[C@H]1n1c(=O)c(OC(F)F)cc2cnc(NC3CCN(S(=O)(=O)CCC#N)CC3)nc21 [Example 33] | 200 to 51000 | 50 to 5200 | 50 to 5200 | 50 to 5200 | < 10 | – | –
17 | C[C@@]1(O)CCC[C@H]1n1c(=O)c(OC(F)F)cc2cnc(NC3CCN(S(=O)(=O)C4CCC(F)CC4)CC3)nc21 (stereo partly shown) [Example 55] | 50 to 5200 | 50 to 5200 | ≤ 50 | ≤ 50 | – | – | –
18 | C[C@@]1(O)CCC[C@H]1n1c(=O)c(OC(F)F)cc2cnc(NC3CCN(S(=O)(=O)c4cccc(Cl)c4)CC3)nc21 [Example 59] | 50 to 5200 | 50 to 5200 | 50 to 5200 | 50 to 5200 | – | – | –
19 | C[C@@]1(O)CCC[C@H]1n1c(=O)c(OC(F)F)cc2cnc(NC3CCN(S(=O)(=O)CCC(F)(F)F)CC3)nc21 [Example 40] | 50 to 5200 | ≤ 50 | 50 to 5200 | – | < 10 | < 10 | –
20 | CN([C@H]1CC[C@H](Nc2ncc3cc(OC(F)F)c(=O)n([C@@H]4CCC[C@@]4(C)O)c3n2)CC1)S(C)(=O)=O [Example 69] | – | – | – | – | < 10 | 10 to 100 | 10 to 100

Second part, the molecule after the results:

Row | IC50 [1] [nM] | IC50 [2] [nM] | IC50 [3] [nM] | IC50 [4] [nM] | IC50 [5] [nM] | IC50 [6] [nM] | IC50 [7] [nM] | SMILES
21 | 50 to 5200 | ≤ 50 | ≤ 50 | ≤ 50 | < 10 | < 10 | – | C[C@@]1(O)CCC[C@H]1n1c(=O)c(OC(F)F)cc2cnc(NC3CCN(S(=O)(=O)C4CCC4)CC3)nc21 [Example 42]
22 | – | – | – | – | < 10 | 10 to 100 | 10 to 100 | C[C@@]1(O)CCC[C@H]1n1c(=O)c(C2COC2)cc2cnc(NC3CCN(S(C)(=O)=O)CC3)nc21 [Example 1]
23 | 50 to 5200 | ≤ 50 | ≤ 50 | ≤ 50 | < 10 | < 10 | – | CCS(=O)(=O)N1CCC(Nc2ncc3cc(OC(F)F)c(=O)n([C@@H]4CCC[C@@]4(C)O)c3n2)CC1 [Example 44]
24 | 200 to 51000 | ≤ 50 | 50 to 5200 | – | < 10 | 10 to 100 | – | C[C@@]1(O)CCC[C@H]1n1c(=O)c(OC(F)F)cc2cnc(NC3CCN(S(=O)(=O)C4CCC(F)(F)CC4)CC3)nc21 [Example 54]
25 | – | – | – | – | 10 to 100 | < 10 | < 10 | CN1CCC(c2ccc(Nc3ncc4cc(OC(F)F)c(=O)n([C@@H]5CCC[C@@]5(C)O)c4n3)cc2)CC1 [Example 61]
26 | 200 to 51000 | 200 to 51000 | 200 to 51000 | – | – | – | – | C[C@@]1(O)CCC[C@H]1n1c(=O)c(OC(F)F)cc2cnc(NC3CCN(C(=O)C(F)(F)F)CC3)nc21 [Example 57]
27 | ≤ 50 | ≤ 50 | ≤ 50 | ≤ 50 | < 10 | < 10 | – | COc1ccc(S(=O)(=O)N2CCC(Nc3ncc4cc(OC(F)F)c(=O)n([C@@H]5CCC[C@@]5(C)O)c4n3)CC2)cn1 [Example 36]
28 | ≤ 50 | ≤ 50 | ≤ 50 | – | < 10 | < 10 | – | COc1ncccc1S(=O)(=O)N1CCC(Nc2ncc3cc(OC(F)F)c(=O)n([C@@H]4CCC[C@@]4(C)O)c3n2)CC1 [Example 37]
29 | 50 to 5200 | ≤ 50 | 50 to 5200 | ≤ 50 | – | – | – | CN1CCN(c2ccc(Nc3ncc4cc(OC(F)F)c(=O)n([C@@H]5CCC[C@@]5(C)O)c4n3)cc2)CC1 [Example 63]
30 | 50 to 5200 | 50 to 5200 | 50 to 5200 | 50 to 5200 | – | – | – | CCCS(=O)(=O)N1CCC(Nc2ncc3cc(OC(F)F)c(=O)n([C@@H]4CCC[C@@]4(C)O)c3n2)CC1 [Example 30]
